Source: ChEMBL document CHEMBL4138043, “Quinoides and VEGFR2 TKIs influence the fate of hepatocellular carcinoma and its cancer stem cells” (Medchemcomm, 2017)
pIC50: −log10 of the molar value.

Experiments:
[1] = system: Huh-7; experiment: Cytotoxicity against human HuH7 cells assessed as growth inhibition after 72 hrs by SRB assay; type: functional, cell-based; conditions: for pIC50: Homo sapiens, Huh-7, 72 h, read-out: IC50
[2] = system: Huh-7; experiment: Disruption of cancer stem cell subpopulation of human HuH7 cells assessed as effect on CD133 levels at IC100 after 72 hrs by flow cytometric method (reference value: 0 to 0.6%); type: functional
[3] = system: Huh-7; experiment: Disruption of cancer stem cell subpopulation of human HuH7 cells assessed as effect on EpCAM levels at IC100 after 72 hrs by flow cytometric method (reference value: 13.7 to 33%); type: functional
[4] = system: Hep 3B2; experiment: Cytotoxicity against human Hep3B cells assessed as growth inhibition after 72 hrs by SRB assay; type: functional, cell-based; conditions: for pIC50: Homo sapiens, Hep3B, 72 h, read-out: IC50
[5] = system: Mahlavu; experiment: Cytotoxicity against human Mahlavu cells assessed as growth inhibition after 72 hrs by SRB assay; type: functional, cell-based; conditions: for pIC50: Homo sapiens, Mahlavu, 72 h, read-out: IC50
[6] = molecular target: Vascular endothelial growth factor receptor 2 (Homo sapiens, UniProt P35968); experiment: Inhibition of N-terminal GST-fused human VEGFR2 C-terminal fragment expressed in Sf9 insect cells using poly(Glu:Tyr) 4:1 as substrate; type: cell-based
Sequence of Vascular endothelial growth factor receptor 2 (P35968 whole entry, the tested form may be a part): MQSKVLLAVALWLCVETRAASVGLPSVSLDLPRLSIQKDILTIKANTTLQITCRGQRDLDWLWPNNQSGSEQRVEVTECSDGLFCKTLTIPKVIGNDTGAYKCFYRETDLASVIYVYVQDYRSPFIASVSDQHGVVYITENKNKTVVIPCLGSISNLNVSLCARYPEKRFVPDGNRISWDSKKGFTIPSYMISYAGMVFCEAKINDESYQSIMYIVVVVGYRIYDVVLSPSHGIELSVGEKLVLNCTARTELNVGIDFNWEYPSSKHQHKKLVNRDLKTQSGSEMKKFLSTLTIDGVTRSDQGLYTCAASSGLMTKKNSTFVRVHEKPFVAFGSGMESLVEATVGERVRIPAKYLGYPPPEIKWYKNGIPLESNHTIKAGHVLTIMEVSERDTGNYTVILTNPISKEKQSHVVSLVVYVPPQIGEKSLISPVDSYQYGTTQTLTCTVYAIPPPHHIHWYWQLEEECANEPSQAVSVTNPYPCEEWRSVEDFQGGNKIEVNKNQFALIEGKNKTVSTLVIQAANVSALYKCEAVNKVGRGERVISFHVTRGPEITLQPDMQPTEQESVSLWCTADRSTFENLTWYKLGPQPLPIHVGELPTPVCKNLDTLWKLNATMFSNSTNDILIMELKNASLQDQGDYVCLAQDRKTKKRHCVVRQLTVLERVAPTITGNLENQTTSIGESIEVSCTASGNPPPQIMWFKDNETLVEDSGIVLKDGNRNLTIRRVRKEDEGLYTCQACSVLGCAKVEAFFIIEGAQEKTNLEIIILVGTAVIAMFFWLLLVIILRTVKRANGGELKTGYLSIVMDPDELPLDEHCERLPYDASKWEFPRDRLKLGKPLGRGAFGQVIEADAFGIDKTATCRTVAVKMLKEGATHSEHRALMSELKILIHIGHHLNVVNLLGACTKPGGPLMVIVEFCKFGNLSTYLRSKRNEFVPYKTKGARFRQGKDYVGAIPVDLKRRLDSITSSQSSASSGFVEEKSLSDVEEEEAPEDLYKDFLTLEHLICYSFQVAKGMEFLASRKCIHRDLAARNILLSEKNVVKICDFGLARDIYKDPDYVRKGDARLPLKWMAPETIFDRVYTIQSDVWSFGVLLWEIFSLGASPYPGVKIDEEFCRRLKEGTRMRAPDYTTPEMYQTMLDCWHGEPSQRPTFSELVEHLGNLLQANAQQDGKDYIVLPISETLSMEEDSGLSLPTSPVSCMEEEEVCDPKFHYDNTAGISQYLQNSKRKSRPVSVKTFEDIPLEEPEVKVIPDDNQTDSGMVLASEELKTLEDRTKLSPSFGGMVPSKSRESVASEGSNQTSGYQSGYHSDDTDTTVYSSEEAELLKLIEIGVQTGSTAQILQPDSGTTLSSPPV

[7] = system: Huh-7; experiment: Disruption of cancer stem cell subpopulation of human HuH7 cells assessed as aggressiveness factor at IC100 after 72 hrs by flow cytometric method; type: functional
[8] = system: Hep 3B2; experiment: Disruption of cancer stem cell subpopulation of human Hep3B cells assessed as aggressiveness factor at IC100 after 72 hrs by flow cytometric method; type: functional
[9] = system: Mahlavu; experiment: Disruption of cancer stem cell subpopulation of human Mahlavu cells assessed as aggressiveness factor at IC100 after 72 hrs by flow cytometric method; type: functional
[10] = system: SNU-475; experiment: Cytotoxicity against human SNU475 cells assessed as growth inhibition after 72 hrs by SRB assay; type: functional, cell-based; conditions: for pIC50: Homo sapiens, SNU-475, 72 h, read-out: IC50
[11] = system: Hep 3B2; experiment: Disruption of cancer stem cell subpopulation of human Hep3B cells assessed as effect on CD133 levels at IC100 after 72 hrs by flow cytometric method (reference value: 0 to 0.6%); type: functional
[12] = system: SNU-475; experiment: Disruption of cancer stem cell subpopulation of human SNU475 cells assessed as aggressiveness factor at IC100 after 72 hrs by flow cytometric method; type: functional
[13] = system: Hep 3B2; experiment: Disruption of cancer stem cell subpopulation of human Hep3B cells assessed as effect on EpCAM levels at IC100 after 72 hrs by flow cytometric method (reference value: 0 to 0.6%); type: functional
[14] = system: SNU-475; experiment: Disruption of cancer stem cell subpopulation of human SNU475 cells assessed as effect on CD90 levels at IC100 after 72 hrs by flow cytometric method (reference value: 0.2%); type: functional
[15] = system: Mahlavu; experiment: Disruption of cancer stem cell subpopulation of human Mahlavu cells assessed as effect on CD90 levels at IC100 after 72 hrs by flow cytometric method (reference value: 0.6%); type: functional
[16] = molecular target: Focal adhesion kinase 1 (Homo sapiens) (UniProt Q05397); experiment: Inhibition of FAK phosphorylation at Y397 in human bone marrow mesenchymal stem cells at 5 uM after 1 hr by immunoblot method relative to control
Sequence of Focal adhesion kinase 1 (Homo sapiens) (Q05397 2-1052 limits assumed): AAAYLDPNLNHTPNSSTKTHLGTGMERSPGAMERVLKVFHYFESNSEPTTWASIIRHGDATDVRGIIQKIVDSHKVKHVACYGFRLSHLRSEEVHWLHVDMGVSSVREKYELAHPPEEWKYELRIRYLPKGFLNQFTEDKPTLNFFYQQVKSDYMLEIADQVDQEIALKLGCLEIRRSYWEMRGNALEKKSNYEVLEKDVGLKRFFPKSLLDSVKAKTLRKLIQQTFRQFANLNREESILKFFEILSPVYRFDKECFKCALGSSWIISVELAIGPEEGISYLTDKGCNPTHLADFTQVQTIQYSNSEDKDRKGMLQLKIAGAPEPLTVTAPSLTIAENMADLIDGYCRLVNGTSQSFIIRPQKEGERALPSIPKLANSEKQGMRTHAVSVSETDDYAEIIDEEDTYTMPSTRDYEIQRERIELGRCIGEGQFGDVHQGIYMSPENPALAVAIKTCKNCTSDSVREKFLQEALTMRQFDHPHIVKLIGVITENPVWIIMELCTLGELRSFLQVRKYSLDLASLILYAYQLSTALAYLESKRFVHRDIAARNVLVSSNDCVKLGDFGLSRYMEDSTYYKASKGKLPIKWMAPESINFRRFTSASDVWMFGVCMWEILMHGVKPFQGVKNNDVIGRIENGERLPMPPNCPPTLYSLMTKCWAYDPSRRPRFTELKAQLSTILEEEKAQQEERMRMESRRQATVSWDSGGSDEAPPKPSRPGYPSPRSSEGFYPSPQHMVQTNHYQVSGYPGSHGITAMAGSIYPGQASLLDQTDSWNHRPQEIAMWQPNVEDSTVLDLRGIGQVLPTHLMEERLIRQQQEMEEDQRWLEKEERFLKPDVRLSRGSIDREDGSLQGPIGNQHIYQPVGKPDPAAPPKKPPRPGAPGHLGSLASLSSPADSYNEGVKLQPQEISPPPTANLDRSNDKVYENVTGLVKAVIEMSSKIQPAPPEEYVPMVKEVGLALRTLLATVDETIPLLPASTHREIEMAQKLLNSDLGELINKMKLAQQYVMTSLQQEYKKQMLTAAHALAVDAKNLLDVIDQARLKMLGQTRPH

[17] = molecular target: Focal adhesion kinase 1 (Homo sapiens) (UniProt Q05397); experiment: Inhibition of FAK phosphorylation at Y397 in human bone marrow mesenchymal stem cells at 1 uM after 1 hr by immunoblot method relative to control

Structure (SMILES)	pIC50 [1]	Activity [2]	Activity [3]	pIC50 [4]	pIC50 [5]	fold change (FC) [7]	fold change (FC) [8]	fold change (FC) [9]	pIC50 [10]	Activity [11]	fold change (FC) [12]	Activity [13]	Activity [14]	Activity [15]	also measured
CCS(=O)(=O)c1ccc(OC)c(Nc2ncc(-c3cccc(-c4cc[nH]c4)c3)o2)c1	5.77	0.9%	32.1%	5.68	6.10	2.3	2.1	–	–	–	–	–	–	–	pIC50 [6]: 7.74
COC1=CC(=O)C([S@@+]([O-])c2ccc(C)cc2)=CC1=O	4.97	0.3%	29.1%	5.00	4.95	0.9	1.1	2.3	5.05	0%	2	84.7%	0.4%	1.4%	–
CCS(=O)(=O)c1ccc(OC)c(Nc2ncc(-c3cccc(-c4ccccn4)c3)o2)c1	5.82	0.1%	23.9%	6.15	5.92	1.7	1.7	–	–	–	–	–	–	–	–
CO[C@H]1[C@@H](OC)C[C@H](C)[C@@H](OC)C2=CC(=O)C=C(NC(=O)/C(C)=C/C=C\[C@H](OC)[C@@H](OC(N)=O)/C(C)=C/[C@@H]1C)C2=O	–	–	–	–	–	–	–	–	–	–	–	–	–	–	inhibition [16]: 78%; inhibition [17]: 61%
CCS(=O)(=O)c1ccc(OC)c(Nc2nc(-c3cccc(-c4ccccn4)c3)co2)c1	6.40	0.1%	23.7%	6.05	5.96	1.7	2.6	–	–	–	–	–	–	–	pIC50 [6]: 3.25
COC1=CC(=O)C(C)=C([S+]([O-])c2ccc(C)cc2)C1=O (racemic)	5.26	0.8%	41.3%	5.37	4.94	1.3	1.1	2.2	5.21	0%	2	84.9%	0.4%	1.3%	–
Cc1ccc([S@+]([O-])C2=C(Cl)C(=O)C=CC2=O)cc1	–	0.2%	24.7%	–	–	0.7	1	0.8	–	0%	1.5	76%	0.3%	0.5%	IC50 ([10]; snu-475): Not Active; IC50 ([1]; huh-7): Not Active; IC50 ([4]; hep 3b2): Not Active; IC50 ([5]; mahlavu): Not Active
CCOC1=CC(=O)C(C)=C([S@@+]([O-])c2ccc(C)cc2)C1=O	5.15	0.3%	40.6%	4.92	4.74	1.2	1	1.7	5.26	0%	0.5	80.1%	0.1%	1%	–
Cc1ccc([S@+]([O-])C2=CC(=O)C=CC2=O)cc1	4.70	0.2%	30.6%	4.76	4.50	0.9	1.1	0.3	6.52	0%	0	81.4%	0%	0.2%	–
CCS(=O)(=O)c1ccc(OC)c(Nc2ncc(-c3cc(-c4ccccn4)cc(-c4ccccn4)c3)o2)c1	5.55	0.4%	31.6%	5.70	5.52	2.3	2.9	–	–	–	–	–	–	–	–
COC1=CC(=O)C(C)=C([S@@+]([O-])c2ccc(C)cc2)C1=O	5.10	0.5%	35.8%	5.26	4.84	1.1	1.1	1.3	4.98	0%	0.5	87.8%	0.1%	0.8%	–
C[C@H](NC(=O)Cc1cc(F)cc(F)c1)C(=O)N[C@H](C(=O)OC(C)(C)C)c1ccccc1	5.30	–	10.2 - 26.7%	5.30	5.30	0.8	0.7	0.2	6.22	0%	0.5	68.8%	0.1%	0.1%	–
CNC(=O)c1cc(Oc2ccc(NC(=O)Nc3ccc(Cl)c(C(F)(F)F)c3)cc2)ccn1.Cc1ccc(S(=O)(=O)O)cc1 [SORAFENIB TOSYLATE]	5.80	0.2%	31.8%	5.82	6.15	–	–	–	–	–	–	–	–	–	–
